Patent US20220273684A1, “Systems and Methods to Identify Pancreatic Ductal Adenocarcinoma and Uses Thereof” (The Board of Trustees of the Leland Stanford Junior …, priority 2021, published 2022)

Assays:
[1] = system: acinar cell-derived PDAC cell lines; experiment: Cell viability assay (MTT) after incubation with drug, acinar cell-derived PDAC cell lines; format: cell-based
Experimental: (§1) FIGS. 4A-4E illustrate exemplary data that acinar and ductal cell-derived pancreatic cancer cells have different sensitivities to multiple therapeutic agents in accordance with various embodiments of the invention. FIG. 4A illustrates an exemplary method to identify agents to treat specific types of tumors and/or treating an individual based on tumor signature. FIG. 4B illustrates a schematic of the experimental setup. FIG. 4C illustrates cell viability after a 24 hour incubation with 25 μM of GSK-3β inhibitor, TDZD-8. FIG. 4D illustrates cell viability after a 48 hour incubation with 1 mM of glucose analog, 2-DG. FIG. 4E illustrates cell viability after a 72 hour incubation with 100 μM of AKT kinase inhibitor, Capivasertib.
Turning to FIGS. 4A-4E, various embodiments are capable of identifying agents to treat specific types of tumors and/or treating an individual based on tumor signature. Specifically, FIG. 4A illustrates a method 400 to test one or more treatments against tumor-derived cells. At 402, many embodiments obtain one or more cultures of cells. […]
Turning back to FIG. 4A, after treatment, many embodiments assess cellular growth at 408. Cellular growth can be assessed manually or automatedly. […]

[2] = system: ductal cell-derived PDAC cell lines; experiment: Cell viability assay (MTT) after incubation with drug, ductal cell-derived PDAC cell lines; format: cell-based; details: 72 hour incubation with 100 μM Capivasertib; ductal cell-derived relative to acinar cell-derived PDAC lines (FIG. 4E)
Experimental: as §1, with “Capivasertib. Turning to FIGS. 4A-4E, various embodiments are capable of identifying agents to treat specific types of tumors and/or treating an individual based on tumor signature. Specifically, FIG. 4A illustrates a method 400 to test one or more treatments against tumor-derived cells. At 402, many embodiments obtain one or more cultures of cells. In various embodiments, the derived tumor cells are obtained as an admixture of cells, while some embodiments obtain cells as a single type (e.g., healthy, acinar cell-derived, or ductal cell-derived). […] Cellular growth can be assessed manually or automatedly. […]” for “Capivasertib.”

OCC1OC(O)CC(O)C1O (stereo not drawn) [2-DG]
cell viability ([1]; 48 hour incubation with 1 mM 2-DG, acinar cell-derived relative to ductal cell-derived PDAC lines (FIG. 4D)): increased viability

NC1(C(=O)N[C@@H](CCO)c2ccc(Cl)cc2)CCN(c2ncnc3[nH]ccc23)CC1 [Capivasertib]
cell viability [2]: increased viability

Cn1sc(=O)n(Cc2ccccc2)c1=O [TDZD-8]
cell viability ([1]; 24 hour incubation with 25 μM TDZD-8, acinar cell-derived relative to ductal cell-derived PDAC lines (FIG. 4C)): increased viability
